In ChEMBL document CHEMBL5634179, “Phenylhydrazone Alkaloids from the Deep-Sea Cold Seep Derived Fungus Talaromyces amestolkiae HDN21-0307” (J Nat Prod, 2024):
In brackets after ≈: the same amount, converted by molar mass. Where a name gives a salt, the structure may show the parent alone.

Experiments:
[1] = test system: Pseudomonas aeruginosa; test: Antibacterial activity against Pseudomonas aeruginosa ATCC 27853 assessed as bacterial growth inhibition; type: functional
[2] = test system: Bacillus cereus; test: Antibacterial activity against Bacillus cereus ATCC 4342 assessed as bacterial growth inhibition; type: functional
[3] = test system: Bacillus subtilis; test: Antibacterial activity against Bacillus subtilis ATCC 6051 assessed as bacterial growth inhibition; type: functional
[4] = Cytotoxicity against human H446/EP cells by SRB assay; type: functional, cell-based
[5] = test system: Staphylococcus aureus; test: Antibacterial activity against Staphylococcus aureus ATCC 29213 assessed as bacterial growth inhibition; type: functional
[6] = test system: Acinetobacter baumannii; test: Antibacterial activity against Acinetobacter baumannii AB34 assessed as bacterial growth inhibition; type: functional
[7] = test system: MDA-MB-231; test: Cytotoxicity against human MDA-MB-231 cells by SRB assay; type: functional, cell-based
[8] = test system: NCI-H446; test: Cytotoxicity against human NCI-H446 cells by SRB assay; type: functional, cell-based
[9] = test system: Staphylococcus; test: Antibacterial activity against methicillin-resistant coagulase-negative Staphylococcus assessed as bacterial growth inhibition; type: functional
[10] = test system: K562; test: Cytotoxicity against human K562 cells by MTT assay; type: functional, cell-based
[11] = test system: Staphylococcus aureus; test: Antibacterial activity against methicillin-resistant Staphylococcus aureus assessed as bacterial growth inhibition; type: functional
[12] = test system: ASPC1; test: Cytotoxicity against human ASPC1 cells by SRB assay; type: functional, cell-based

Row | SMILES | MIC [1] | MIC [2] | MIC [3] | IC50 [4] | MIC [5] | MIC [6] | IC50 [7] | IC50 [8] | MIC [9] | IC50 [10] | MIC [11] | IC50 [12]
1 | COc1cc(O)ccc1N/N=C1\C(=O)C=C(Cc2ccccc2)NC1=O | > 150 µg/mL | > 150 µg/mL | > 150 µg/mL | > 15 µM | 32 µg/mL (≈ 91.1 µM) | > 150 µg/mL | > 15 µM | 4.1 µM | > 150 µg/mL | > 15 µM | > 150 µg/mL | > 15 µM
2 | COc1cc(O)ccc1N/N=C1/C=Cc2cc(O)cc(O)c2C1=O | > 150 µg/mL | 128 µg/mL (≈ 392 µM) | 128 µg/mL (≈ 392 µM) | > 15 µM | 128 µg/mL (≈ 392 µM) | > 150 µg/mL | > 15 µM | > 15 µM | 64 µg/mL (≈ 196 µM) | > 15 µM | 64 µg/mL (≈ 196 µM) | > 15 µM
3 | COc1cc(O)ccc1N/N=C1/C=Cc2cccc(O)c2C1=O | > 150 µg/mL | 128 µg/mL (≈ 412 µM) | 128 µg/mL (≈ 412 µM) | > 15 µM | 128 µg/mL (≈ 412 µM) | > 150 µg/mL | > 15 µM | > 15 µM | 128 µg/mL (≈ 412 µM) | > 15 µM | 128 µg/mL (≈ 412 µM) | > 15 µM
4 | COc1cc(O)ccc1N/N=C1/C(=O)[C@@](C)(OC(=O)c2c(C)cc(O)cc2O)C(=O)C2=C1C=C(/C=C/C(=O)O)OC2 | > 150 µg/mL | > 150 µg/mL | > 150 µg/mL | > 15 µM | 64 µg/mL (≈ 113 µM) | > 150 µg/mL | > 15 µM | 10.2 µM | > 150 µg/mL | > 15 µM | > 150 µg/mL | > 15 µM
5 | O=C(O)c1cn(C2CC2)c2cc(N3CCNCC3)c(F)cc2c1=O [CIPROFLOXACIN] |  | 0.063 µg/mL (≈ 0.19 µM) | 0.63 µg/mL (≈ 1.9 µM) |  |  | 16 µg/mL (≈ 48.3 µM) |  |  | 4 µg/mL (≈ 12.1 µM) |  |  | 
6 | COc1cccc2c1C(=O)c1c(O)c3c(c(O)c1C2=O)C[C@@](O)(C(=O)CO)C[C@@H]3O[C@H]1C[C@H](N)[C@H](O)[C@H](C)O1 [DOXORUBICIN HYDROCHLORIDE] |  |  |  | 6 µM |  |  |  | 0.6 µM |  |  |  | 0.21 µM
